In patent US9198416B2, “Method for enhancing drought tolerance in plants” (Plant Response Biotech S.L., priority 2013, dated 2015):

What was measured:
Format in all cases: in vivo
[1] = TMAO content in pepper leaves by NMR after TMAO spray; conditions: 1 g/l spray
Description: (§1) For each wilting or limited water experiment 480 seeds (of either pepper, barley, tomato, cucumber or corn) were sown, producing 384 plants in 512 cm^3 pots (4 plants per pot). Plants were grown under chamber conditions at 21° C. for 3 weeks. Then, the plants were moved to a greenhouse, where average temperature was 25° C. to 28° C. Treatments as described herein were done when the plants had two extended leaves and the next pair of leaves were coming up.
(§2) TMAO content in plants was determined by harvesting three leaves per treatment and freezing them in liquid nitrogen before the NMR determination. At least three independent plants were treated per experiment.
(§3) TMAO accumulates in pepper and barley when applied exogenously. ‘Murano’ pepper seeds and ‘Bomi’ barley seeds were sown and grown as described above. Control plants (six weeks old) were sprayed with water and pepper treated plants were sprayed with 1 g/l of TMAO while barley plants were sprayed with 1 g/l of TMAO formulated with 0.1% of C8-C10 Alkylpolysaccharide. Leaves were harvested and TMAO was determined by NMR. The percentage of TMAO increase compared to untreated controls was determined for each time point. TMAO levels increase in pepper and barley with exogenous treatment of TMAO at 1 g/l to higher levels than drought treatment and furthermore, the TMAO levels are high up to 40 days post spray in pepper.

[2] = tested on: 'Sabrina', 'Candonga' and 'Fortuna' variety strawberry plants; experiment: Strawberry fruit production under normal conditions (trade-off test); conditions: no water stress; for Strawberry fruit production % Control: 1 g/L spray every 4 weeks for 3 months
Description: In order to determine the plant fruit productivity under normal conditions, ‘Sabrina’, ‘Candonga’ and ‘Fortuna’ variety strawberry plants were grown under standard strawberry production conditions and 120 plants of each variety per treatment (where the treatment was a Control comprising standard watering or 1 g/L of TMAO spray every four weeks) were analyzed. Plants were located in four (4) different positions for each group of 30 plants from the same treatment. Fruits were harvested from individual plants and total weight was determined for each plant.
Fruit yield was determined in ‘Sabrina’, ‘Candonga’ and ‘Fortuna’ strawberry plants treated with 1 g/l of TMAO di-hydrate or water as described above in order to evaluate the trade-off costs of the treatment with no water stress.

Moneymaker tomato = experiment: Tomato plant survival under extreme drought; conditions: higher test rates, both treatments (sprayed or watered)
Description: as §1
Twelve (12) pots (containing 48 plants) were irrigated with 40 ml of either: water, 0.1 g/L TMAO di-hydrate solution, 1.0 g/L TMAO di-hydrate solution, or 5.5 g/L TMAO di-hydrate solution. […]
(§4) After the treatments described above, the plants were not watered until the pots completely lost their moisture, taking about 4 to 8 days depending on the season, at which point the plants were extremely wilted for the extreme drought experiments. […] The plant survival rate was recorded and analyzed for the “extreme drought” experiments in which plants were allowed to wilt severely before watering, while the stem length was recorded as analyzed for the limited water experiments in which the plants are watered with 30% of the water that the plant requires. […]

[3] = TMAO content in barley leaves by NMR after TMAO spray; conditions: 1 g/l spray formulated with 0.1% C8-C10 Alkylpolysaccharide, 1 day post spray
Description: as §1, §2, §3

'FAO700' corn = experiment: Corn number of green leaves under limited water irrigation; conditions: 30% water, 1 g/L (Table 11 rows 3 and 4)
Description: as §1
(§5) After the treatments described above, the plants were not watered until the pots completely lost their moisture, taking about 4 to 8 days depending on the season, at which point the plants were extremely wilted for the extreme drought experiments. The plants were then watered once with solutions containing the different amounts of TMAO di-hydrate described above (0.1 g/L, 1.0 g/L or 5.5 g/L) or just water, after which the plants were left to lose their moisture completely again for three consecutive cycles of watering after wilting. […] The plant survival rate was recorded and analyzed for the “extreme drought” experiments in which plants were allowed to wilt severely before watering, while the stem length was recorded as analyzed for the limited water experiments in which the plants are watered with 30% of the water that the plant requires. […]

'Rio Grande' tomato = experiment: Tomato fruit production under limited water irrigation; conditions: 30% water irrigation, 1 g/L TMAO spray every 4 weeks
Description: as §1, §5

[4] = tested on: tomato 'Moneymaker' seeds; experiment: Tomato seed germination under PEG-6000 simulated drought; conditions: 10 days
Description: In order to determine the drought or water stress tolerance after seed treatments with TMAO di-hydrate and germination in the presence of TMAO di-hydrate, tomato ‘Moneymaker’ seeds were surface sterilized for 3 minutes in ethanol 70%, then rinsed twice and finally included in a pre-treatment solution of 0.1 g/L TMAO di-hydrate solution (or just water) under shaking for 3 hours. Then, they were rinsed and included in the germination plates under sterile conditions. Polyethylene glycol (PEG-6000) was added to the germination medium (Murashige and Skoog salts medium) at 152 and 182 g/L. The increasing amount of PEG reduces ψ (hydric potential) values, simulating drought conditions for germination. Each germination plate had at least 30 seeds, and each treatment/pretreatment plate was replicated five times (150 seeds per treatment/pretreatment). Seeds were left to germinate for 10 days under dark conditions in a culture chamber (21° C. light and 20° C. night, 65% humidity). Then, germinated seeds were recorded by visual inspection and data analysis was performed using Statgraphics software.
TMAO di-hydrate applied exogenously increases germination both in pre-treatment of the seeds and as an additive to the medium. Tomato ‘Moneymaker’ seeds were sown, grown and treated as described above.

'Bomi' barley = experiment: Barley dry weight under drought / limited water irrigation; conditions: drought growing conditions
Description: as §1
Twelve (12) pots (containing 48 plants) were irrigated with 40 ml of either: water, 0.1 g/L TMAO di-hydrate solution, 1.0 g/L TMAO di-hydrate solution, or 5.5 g/L TMAO di-hydrate solution. Another set of 12 pots containing 48 plants were sprayed with 40 ml of either water (3.3 ml in average per pot), a solution containing 0.1 g/L TMAO di-hydrate solution, 1.0 g/L TMAO di-hydrate, or 5.5 g/L TMAO di-hydrate. All pots were also watered with 40 ml of water. The sprayed plants were watered with the same volume of water as the “irrigated plants) The pots were located on plastic glass to maintain constant moisture and to avoid liquid spillage during watering. Trays containing the pots were located on greenhouse tables. The distribution of the trays on the table and the position on the pots in the tray was changed every week to avoid position effects.
as §4

'TAO700' corn [5] = experiment: Corn total chlorophyll content under limited water irrigation; conditions: 30% water
Description: as §1, §5

'TAO700' corn [6] = experiment: Corn number of grains per cob under limited water irrigation; conditions: 30% water, 1 g/L (Table 13 row 4)
Description: as §1, §5

'Murano' pepper = experiment: Pepper plant survival under extreme drought; conditions: 10 g/L and 1 g/L sprayed, irrigation with water (as worded)
Description: as §1
Twelve (12) pots (containing 48 plants) were irrigated with 40 ml of either: water, 0.1 g/L TMAO di-hydrate solution, 1.0 g/L TMAO di-hydrate solution, or 5.5 g/L TMAO di-hydrate solution. […] All pots were also watered with 40 ml of water. […]
as §4

With `C[N+](C)(C)[O-]` [TMAO, Trimethylamine N-oxide] the “TMAO accumulation % Control” value ([1]; 1 day post spray, vs water-sprayed control) was 529 % Control, the “TMAO accumulation % Control” value ([1]; 10 days post spray) was 373 % Control and the “TMAO accumulation % Control” value ([1]; 20 days post spray) was 286 % Control. For the same molecule, the “TMAO accumulation % Control” value ([1]; 30 days post spray) was 135 % Control, the “TMAO accumulation % Control” value ([1]; 40 days post spray) was 213 % Control and the “difference in fruit production vs water” value ([2]; 1 g/l, three strawberry varieties) was “no significant difference”. The “Strawberry fruit production % Control” value ([2]; Candonga) was 102 % Control, the “Strawberry fruit production % Control” value ([2]; Fortuna) was 101 % Control and the “Strawberry fruit production % Control” value ([2]; Sabrina) was 106 % Control. The “Strawberry fruit production % Control” value ([2]; Total of the three varieties) was 105 % Control, the “shoot dry mass compared with untreated plants” value (Moneymaker tomato) was “clear increase” and the “TMAO accumulation % Control” value [3] was 822 % Control. The “increase in green leaf production over untreated plants with 30% irrigation” value ('FAO700' corn) was 47%, the “AVERAGE WEIGTH (grams/fruit)” value ('Rio Grande' tomato) was 76.73 ± 17.67 grams/fruit and the “GERMINATION RATE” value ([4]; PEG 152 g/L (ψ −0.2564), 0.1 g/L in the germination medium) was 71.09 ± 4.26%. For the same molecule, the “GERMINATION RATE” value ([4]; PEG 152 g/L (ψ −0.2564), seed pre-treatment 0.1 g/L solution 3 hours) was 70.62 ± 4.62%, the “GERMINATION RATE” value ([4]; PEG 182 g/L (ψ −0.3676), 0.1 g/L in the germination medium) was 45.00 ± 3.20% and the “GERMINATION RATE” value ([4]; PEG 182 g/L (ψ −0.3676), seed pre-treatment 0.1 g/L solution 3 hours) was 18.53 ± 3.20%. For the same molecule, the “AVERAGE DRY WEIGHT” value ('Bomi' barley; initial treatment 1 g/L sprayed solution, irrigations water) was 1205.4 ± 60.37 mg, the “AVERAGE DRY WEIGHT” value ('Bomi' barley; initial treatment 1 g/L watered solution, irrigations water) was 1371.4 ± 66.13 mg and the “AVERAGE DRY WEIGHT” value ('Bomi' barley; irrigations 1 g/L solution, initial treatments pooled) was 1216.1 ± 33.44 mg. For the same molecule, the “TOTAL CHLOROPHYL CONTENT” value ('TAO700' corn [5]; 1 g/L TMAO seed treatment) was 0.8977 ± 0.195, the “TOTAL CHLOROPHYL CONTENT” value ('TAO700' corn [5]; 1 g/L TMAO spray) was 0.7278 ± 0.076 and the “increase in total number of grains per corn cob compared to 100% irrigation” value ('TAO700' corn [6]) was 2%. It also gave a plant survival ('Murano' pepper) of 83.3%.
